The record followed here is patent publication US7205306B2, “Substituted pyrazinones, pyridines and pyrimidines as corticotropin releasing factor ligands” (Bristol-Myers Squibb Pharma Company, priority 2001, dated 2007).

Several values for one entry are separate records, joined by “and”; a condition that tells them apart may be missing. Equal entries are not always repeated. Structures can show the parent of a compound that is named as a salt.

By melting point is commonly meant the temperature of the solid-liquid transition.

`CCC(CC)n1cc(Cl)nc(N2CCc3cc(OC)cc(C)c32)c1=O` (as salt: hydrochloride) [Example 431, 5-Chloro-1-(1-ethylpropyl)-3-(5-methoxy-7-methyl-2,3-dihydro-1H-indol-1-yl)-2(1H)-pyrazinone] displayed a melting point of 164 to 165 °C. With `CCC(CC)n1cc(Cl)nc(N2CCc3cc(OC)cc(Br)c32)c1=O` (as salt: hydrochloride) [Example 441, 3-(7-Bromo-5-methoxy-2,3-dihydro-1H-indol-1-yl)-5-chloro-1-(1-ethylpropyl)-2(1H)-pyrazinone] the figure was 130 to 132 °C. With `CCC(CC)n1cc(C)nc(N2CCc3cc(OC)cc(C)c32)c1=O` (as salt: hydrochloride) [Example 481, 3-(5-Methoxy-7-methyl-2,3-dihydro-1H-indol-1-yl)-1-(1-ethylpropyl)-5-methyl-2(1H)-pyrazinone] the figure was 138 to 140 °C; with `CCC(C)n1cc(Cl)nc(N2CCc3cc(OC)cc(Cl)c32)c1=O` (centres unmarked) (as salt: hydrochloride) [Example 501, 5-Chloro-3-(7-chloro-5-methoxy-2,3-dihydro-1H-indol-1-yl)-1-(1-methylpropyl)-2(1H)-pyrazinone], 143 to 145 °C. To `CCC(C)n1cc(Cl)nc(N2CCc3cc(OC)cc(Br)c32)c1=O` (centres unmarked) (as salt: hydrochloride) [Example 502, 3-(7-Bromo-5-methoxy-2,3-dihydro-1H-indol-1-yl)-5-chloro-1-(1-methylpropyl)-2(1H)-pyrazinone] belongs 155 to 157 °C; to `CCC(C)n1cc(Cl)nc(N2CCc3cc(OC)cc(C)c32)c1=O` (centres unmarked) (as salt: hydrochloride) [Example 503, 5-Chloro-3-(5-methoxy-7-methyl-2,3-dihydro-1H-indol-1-yl)-1-(1-methylpropyl)-2(1H)-pyrazinone], 176 to 178 °C; to `CCC(CC)n1cc(Br)nc(N2CCc3cc(OC)cc(Br)c32)c1=O` (as salt: hydrochloride) [Example 505, 5-Bromo-3-(7-bromo-5-methoxy-2,3-dihydro-1H-indol-1-yl)-1-(1-ethylpropyl)-2(1H)-pyrazinone], 133 to 135 °C. Take `CCC(CC)n1cc(Br)nc(N2CCc3cc(OC)cc(C)c32)c1=O` (as salt: hydrochloride) [Example 506, 5-Bromo-1-(1-ethylpropyl)-3-(5-methoxy-7-methyl-2,3-dihydro-1H-indol-1-yl)-2(1H)-pyrazinone]: the melting point was 152 to 154 °C. With `CC[C@H](C1CC1)n1cc(Cl)nc(N2CCc3cc(OC)cc(Cl)c32)c1=O` (as salt: hydrochloride) [Example 508, 5-Chloro-3-(7-chloro-5-methoxy-2,3-dihydro-1H-indol-1-yl)-1-[(1R)-1-cyclopropylpropyl]-2(1H)-pyrazinone] the figure was 118 to 120 °C; with `CC[C@H](C1CC1)n1cc(Cl)nc(N2CCc3cc(OC)cc(Br)c32)c1=O` (as salt: hydrochloride) [Example 509, 3-(7-Bromo-5-methoxy-2,3-dihydro-1H-indol-1-yl)-5-chloro-1-[(1R)-1-cyclopropylpropyl]-2(1H)-pyrazinone], 138 to 140 °C; with `CC[C@H](C1CC1)n1cc(Cl)nc(N2CCc3cc(OC)cc(C)c32)c1=O` (as salt: hydrochloride) [Example 510, 5-Chloro-1-[(1R)-1-cyclopropylpropyl]-3-(5-methoxy-7-methyl-2,3-dihydro-1H-indol-1-yl)-2(1H)-pyrazinone], 160 to 162 °C. With `CC[C@@H](C1CC1)n1cc(Cl)nc(N2CCc3cc(OC)cc(Cl)c32)c1=O` (as salt: hydrochloride) [Example 514, 5-Chloro-3-(7-chloro-5-methoxy-2,3-dihydro-1H-indol-1-yl)-1-[(1S)-1-cyclopropylpropyl]-2(1H)-pyrazinone] the figure was 128 to 130 °C. `CC[C@@H](C1CC1)n1cc(Cl)nc(N2CCc3cc(OC)cc(Br)c32)c1=O` (as salt: hydrochloride) [Example 515, 3-(7-Bromo-5-methoxy-2,3-dihydro-1H-indol-1-yl)-5-chloro-1-[(1S)-1-cyclopropylpropyl]-2(1H)-pyrazinone] yielded a melting point of 138 to 140 °C.

In turn, `CC[C@@H](C1CC1)n1cc(Cl)nc(N2CCc3cc(OC)cc(C)c32)c1=O` (as salt: hydrochloride) [Example 516, 5-Chloro-1-[(1S)-1-cyclopropylpropyl]-3-(5-methoxy-7-methyl-2,3-dihydro-1H-indol-1-yl)-2(1H)-pyrazinone] returned a melting point of 156 to 158 °C. In turn, `CC[C@H](COC)n1cc(Cl)nc(N2CCc3cc(OC)cc(Br)c32)c1=O` (as salt: hydrochloride) [Example 523, 3-(7-Bromo-5-methoxy-2,3-dihydro-1H-indol-1-yl)-5-chloro-1-[(1R)-1-(methoxymethyl)propyl]-2(1H)-pyrazinone] yielded a melting point of 102 to 104 °C. Consider `CC[C@H](COC)n1cc(Br)nc(N2CCc3cc(OC)cc(Br)c32)c1=O` (as salt: hydrochloride) [Example 525, 5-Bromo-3-(7-bromo-5-methoxy-2,3-dihydro-1H-indol-1-yl)-1-[(1R)-1-(methoxymethyl)propyl]-2(1H)-pyrazinone], for which the melting point lay in the range of 122 to 123 °C. To `CC[C@H](COC)n1cc(Br)nc(N2CCc3cc(OC)cc(C)c32)c1=O` (as salt: hydrochloride) [Example 526, 5-Bromo-3-(5-methoxy-7-methyl-2,3-dihydro-1H-indol-1-yl)-1-[(1R)-1-(methoxymethyl)propyl]-2(1H)-pyrazinone] belongs 116 to 118 °C. To `CC[C@@H](COC)n1cc(Cl)nc(N2CCc3cc(OC)cc(Br)c32)c1=O` (as salt: hydrochloride) [Example 529, 3-(7-Bromo-5-methoxy-2,3-dihydro-1H-indol-1-yl)-5-chloro-1-[(1S)-1-(methoxymethyl)propyl]-2(1H)-pyrazinone] belongs 100 to 102 °C; to `COc1cc(C)c2c(c1)CCN2c1nc(Cl)cn(C(C(C)C)C(C)C)c1=O` (as salt: hydrochloride) [Example 532], 94 to 96 °C. With `COc1cc(C)c2c(c1)CCN2c1nc(Cl)cn(CCSC)c1=O` (as salt: hydrochloride) [Example 534, 5-Chloro-3-(5-methoxy-7-methyl-2,3-dihydro-1H-indol-1-yl)-1-[2-(methylthio)ethyl]-2(1H)-pyrazinone] the figure was 111 to 113 °C; with `CC[C@H](COC)n1cc(Cl)nc(N2CCc3cc(OC)cc(Cl)c32)c1=O` (as salt: hydrochloride) [Example 544, 5-Chloro-3-(7-chloro-5-methoxy-2,3-dihydro-1H-indol-1-yl)-1-[(1R)-1-(methoxymethyl)propyl]-2(1H)-pyrazinone], 126 to 128 °C. `CC[C@H](COC)n1cc(Cl)nc(N2CCc3cc(OC)cc(C)c32)c1=O` (as salt: hydrochloride) [Example 545, 5-Chloro-3-(5-methoxy-7-methyl-2,3-dihydro-1H-indol-1-yl)-1-[(1R)-1-(methoxymethyl)propyl]-2(1H)-pyrazinone]: the melting point fell in the range of 62 to 64 °C. With `CC[C@@H](COC)n1cc(Br)nc(N2CCc3cc(OC)cc(C)c32)c1=O` (as salt: hydrochloride) [Example 549, 5-Bromo-3-(5-methoxy-7-methyl-2,3-dihydro-1H-indol-1-yl)-1-[(1S)-1-(methoxymethyl)propyl]-2(1H)-pyrazinone] the figure was 115 to 117 °C; with `CCC(CC)Nc1cc(N2CCc3cc(Cl)cc(Cl)c32)nc(C)n1` [Example 1, 4-(5,7-dichloro-2,3-dihydro-1H-indol-1-yl)-6-(1-ethylpropylamino)-2-methylpyrimidine], 116 to 117 °C. To `CCC(CC)Nc1nc(C)nc(N2CCc3cc(Cl)cc(Cl)c32)c1Cl` [Example 2, 5-chloro-4-(5,7-dichloro-2,3-dihydro-1H-indol-1-yl)-6-(1-ethylpropylamino)-2-methylpyrimidine] belongs 132 to 134 °C.

`CCC(CC)Nc1nc(C)nc(N2CCc3cc(Cl)cc(Cl)c32)c1Br` [Example 3, 5-bromo-4-(5,7-dichloro-2,3-dihydro-1H-indol-1-yl)-6-(1-ethylpropylamino)-2-methylpyrimidine] came in with a melting point of 136 to 138 °C.

The compound `CCC(CC)Nc1nc(C)nc(N2CCc3cc(Cl)cc(Cl)c32)c1C=O` [Example 6, 4-(5,7-dichloro-2,3-dihydro-1H-indol-1-yl)-6-(1-ethylpropylamino)-5-formyl-2-methylpyrimidine] had a melting point of 182 to 184 °C. Compound `CCC(CC)Nc1nc(C)nc(N2CCc3cc(Cl)cc(Cl)c32)c1CO` [Example 7, 4-(5,7-dichloro-2,3-dihydro-1H-indol-1-yl)-6-(1-ethylpropylamino)-5-hydroxymethyl-2-methylpyrimidine] gave a melting point of 150 to 152 °C. To `CCC(CC)Nc1nc(C)nc(N2CCc3cc(OC)cc(Cl)c32)c1C#N` [Example 59, 4-(7-chloro-5-methoxy-2,3-dihydro-1H-indol-1-yl)-5-cyano-6-(1-ethylpropylamino)-2-methylpyrimidine] belongs 189 to 190 °C and 192 to 194 °C. With `CCC(CC)Nc1nc(C)nc(N2CCc3cc(OC)cc(Cl)c32)c1C=O` [Example 60, 4-(7-chloro-5-methoxy-2,3-dihydro-1H-indol-1-yl)-6-(1-ethylpropylamino)-5-formyl-2-methylpyrimidine] the figure was 178 to 179 °C; with `CCC(COC)Nc1nc(C)nc(N2CCc3cc(OC)cc(Cl)c32)c1I` (centres unmarked) [Example 74, 4-(7-chloro-5-methoxy-2,3-dihydro-1H-indol-1-yl)-5-iodo-6-[1-(1-methoxymethyl)propylamino]-2-methylpyrimidine], 150 to 152 °C. With `CCC(COC)Nc1nc(C)nc(N2CCc3cc(OC)cc(Cl)c32)c1C#N` (centres unmarked) [Example 75, 4-(7-chloro-5-methoxy-2,3-dihydro-1H-indol-1-yl)-5-cyano-6-[1-(1-methoxymethyl)propylamino]-2-methylpyrimidine] the figure was 182 to 183 °C.
